Test [1] concerns the target T1, HCV NS3/4A protease complex (BMS strain) (UniProt P27958).
T1 construct: other: HCV NS3/4A enzyme assay; said of H77 and J4L6S; fused on or other part: Three-lysine solubilising tail at the NS4A C-terminus and a His tag from pET21b (Ni-NTA purification), for the H77 and J4L6S constructs
Put plainly: FRET peptide assay to monitor HCV NS3/4A proteolytic activity, BMS strain. In kind it is biochemical, Hepatitis C virus (genotype 1a). To be noted: read-out: IC50 Range; HCV NS3/4A enzyme assay; Table 1. The text has this:
HCV NS3 protease complexes, derived from the BMS strain, H77 strain or J4L6S strain, were generated, as described below. These purified recombinant proteins were generated for use in a homogeneous assay (see below) to provide an indication of how effective compounds of the present disclosure would be in inhibiting HCV NS3 proteolytic activity.
Serum from an HCV-infected patient was obtained from Dr. T. Wright, San Francisco Hospital. An engineered full-length cDNA (compliment deoxyribonucleic acid) template of the HCV genome (BMS strain) was constructed from DNA fragments obtained by reverse transcription-PCR (RT-PCR) of serum RNA (ribonucleic acid) and using primers selected on the basis of homology between other genotype 1a strains. From the determination of the entire genome sequence, a genotype 1a was assigned to the HCV isolate according to the classification of Simmonds et al. (See P Simmonds, K A Rose, S Graham, S W Chan, F McOmish, B C Dow, E A Follett, P L Yap and […] Marsden, J. Clin. Microbiol., 31(6), 1493-1503 (1993)). […] The infectious clones, H77 (1a genotype) and J4L6S (1b genotype) were obtained from R. Purcell (NIH) and the sequences are published in Genbank (AAB67036, see Yanagi, M., Purcell, R. H., Emerson, S. U. and Bukh, J. Proc. Natl. Acad. Sci. U.S.A. 94(16), 8738-8743 (1997); AF054247, see Yanagi, M., St Claire, M., Shapiro, M., Emerson, S. U., Purcell, R. H. and Bukh, J, Virology 244 (1), 161-172. (1998)).
NS3/4A protease complex-containing fractions were pooled and loaded on a desalting column Superdex-S200 pre-equilibrated with buffer D (25 mM HEPES, pH 7.5, 20% glycerol, 300 mM NaCl, 0.2% Triton X-100, 10 mM βME). Sample was loaded at a flow rate of 1 mL/min. NS3/4A protease complex-containing fractions were pooled and concentrated to approximately 0.5 mg/ml. The purity of the NS3/4A protease complexes, derived from the BMS, H77 and J4L6S strains, were judged to be greater than 90% by SDS-PAGE and mass spectrometry analyses. The enzyme was stored at −80° C., thawed on ice and diluted prior to use in assay buffer.
The purpose of this in vitro assay was to measure the inhibition of HCV NS3 protease complexes, derived from the BMS strain, H77 strain or J4L6S strain, as described above, by compounds of the present disclosure. This assay provides an indication of how effective compounds of the present disclosure would be in inhibiting HCV NS3 proteolytic activity.
In order to monitor HCV NS3/4A protease activity, an NS3/4A peptide substrate was used. The substrate was RET S1 (Resonance Energy Transfer Depsipeptide Substrate; AnaSpec, Inc. cat # 22991) (FRET peptide), described by Taliani et al. in Anal. Biochem. 240(2):60-67 (1996). The sequence of this peptide is loosely based on the NS4A/NS4B natural cleavage site for the HCV NS3 protease except there is an ester linkage rather than an amide bond at the cleavage site. The peptide also contains a fluorescence donor, EDANS, near one end of the peptide and an acceptor, DABCYL, near the other end. The fluorescence of the peptide is quenched by […] resonance energy transfer (RET) between the donor and the acceptor, but as the NS3 protease cleaves the peptide the products are released from RET quenching and the fluorescence of the donor becomes apparent.
The peptide substrate was incubated with one of the three recombinant NS3/4A protease complexes, in the absence or presence of a compound of the present disclosure. The inhibitory effects of a compound were determined by monitoring the formation of fluorescent reaction product in real time using a Cytofluor Series 4000.
Assay buffer: 50 mM HEPES, pH 7.5; 0.15 M NaCl; 0.1% Triton; 15% Glycerol; 10 mM βME. Substrate: 2 μM final concentration (from a 2 mM stock solution in DMSO stored at −20° C.). HCV NS3/4A protease type 1a (1b), 2-3 nM final concentration (from a 5 μM stock solution in 25 mM HEPES, pH 7.5, 20% glycerol, 300 mM NaCl, 0.2% Triton-X100, 10 mM βME). […]

Test [2] relates to HCV replicon in HUH-7 cells. Put plainly: HCV replicon FRET assay. The test is classed as cell-based, Hepatitis C virus (strain 1b). To be noted: Table 1. The text has this: An HCV replicon whole cell system was established as described by Lohmann V, Korner F, Koch J, Herian U, Theilmann L, Bartenschlager R., Science 285(5424): 110-3 (1999). This system enabled us to evaluate the effects of our HCV Protease compounds on HCV RNA replication. Briefly, using the HCV strain 1b sequence described in the Lohmann paper (Assession number: AJ238799), an HCV cDNA was synthesized by Operon Technologies, Inc. (Alameda, Calif.), and the full-length replicon was then assembled in plasmid pGem9zf(+) (Promega, Madison, Wis.) using standard molecular biology techniques. The replicon consists of (i) the HCV 5′ UTR fused to the first 12 amino acids of the capsid protein, (ii) the neomycin phosphotransferase gene (neo), (iii) the IRES from encephalomyocarditis virus (EMCV), and (iv) HCV NS3 to NS5B genes and the HCV 3′ UTR. Plasmid DNAs were linearized with ScaI and RNA transcripts were synthesized in vitro using the T7 MegaScript transcription kit (Ambion, Austin, Tex.) according to manufacturer's directions. In vitro transcripts of the cDNA were transfected into the human hepatoma cell line, HUH-7. […] Resulting cell lines were characterized for positive and negative strand RNA production and protein production over time.
The HCV replicon FRET assay was developed to monitor the inhibitory effects of compounds described in the disclosure on HCV viral replication. HUH-7 cells, constitutively expressing the HCV replicon, were grown in Dulbecco's Modified Eagle Media (DMEM) (Gibco-BRL) containing 10% Fetal calf serum (FCS) (Sigma) and 1 mg/ml G418 (Gibco-BRL). Cells were seeded the night before (1.5×10^4 cells/well) in 96-well tissue-culture sterile plates. Compound and no compound controls were prepared in DMEM containing 4% FCS, 1:100 Penicillin/Streptomysin (Gibco-BRL), 1:100 L-glutamine and 5% DMSO in the dilution plate (0.5% DMSO final concentration in the assay). Compound/DMSO mixes were added to the cells and incubated for 4 days at 37° C. After 4 days, cells were first assessed for cytotoxicity using alamar Blue (Trek Diagnotstic Systems) for a CC50 reading. The toxicity of compound (CC50) was determined by adding 1/10th volume of alamarBlue to the media incubating the cells. After 4 h, the fluorescence signal from each well was read, with an excitation wavelength at 530 nm and an emission wavelength of 580 nm, using the Cytofluor Series 4000 (Perspective Biosystems). Plates were then rinsed thoroughly with Phosphate-Buffered Saline (PBS) (3 times 150 μl). The cells were lysed with 25 μl of a lysis assay reagent containing an HCV protease substrate (5× cell Luciferase cell culture lysis reagent (Promega #E153A) diluted to 1× with distilled water, NaCl added to 150 mM final, the FRET peptide substrate (as described for the enzyme assay above) diluted to 10 μM final from a 2 mM stock in 100% DMSO. The plate was then placed into the Cytofluor 4000 instrument which had been set to 340 nm excitation/490 nm emissions, automatic mode for 21 cycles and the plate read in a kinetic mode. EC50 determinations were carried out as described for the IC50 determinations.
In general terms: Replicon systems follow genome replication, usually without infectious particles.

The mark [3] stands for this setting: Hepatitis C virus, Huh-7, read-out: EC50 Range, HCV replicon cell assay.

Like-named read-outs stand apart in the source and are kept apart here. Some results are limits rather than exact numbers.

Broadly, the IC50 is the midpoint of a concentration-inhibition curve. Broadly, the EC50 is the concentration giving half of the maximal effect.

T1 sequence (P27958 1027-1657, one chain of several): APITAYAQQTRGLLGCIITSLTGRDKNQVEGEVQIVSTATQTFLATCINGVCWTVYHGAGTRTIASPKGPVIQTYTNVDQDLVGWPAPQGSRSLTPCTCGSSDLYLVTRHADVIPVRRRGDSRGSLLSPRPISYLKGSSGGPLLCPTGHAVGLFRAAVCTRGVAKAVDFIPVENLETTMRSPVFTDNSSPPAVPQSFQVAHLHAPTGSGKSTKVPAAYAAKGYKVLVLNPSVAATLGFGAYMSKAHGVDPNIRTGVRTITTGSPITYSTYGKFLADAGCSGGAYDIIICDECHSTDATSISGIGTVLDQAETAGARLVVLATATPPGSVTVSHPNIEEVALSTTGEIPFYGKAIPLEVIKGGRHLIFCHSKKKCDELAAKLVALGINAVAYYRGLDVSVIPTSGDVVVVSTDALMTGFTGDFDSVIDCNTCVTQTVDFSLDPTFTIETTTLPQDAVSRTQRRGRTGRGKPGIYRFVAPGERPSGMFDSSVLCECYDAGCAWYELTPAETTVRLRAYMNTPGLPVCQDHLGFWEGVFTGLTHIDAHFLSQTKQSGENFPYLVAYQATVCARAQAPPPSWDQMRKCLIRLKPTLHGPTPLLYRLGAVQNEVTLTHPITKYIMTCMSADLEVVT

Consider `C=C[C@@H]1C[C@]1(NC(=O)[C@@H]1C[C@@H](Oc2cc(-c3ccccc3)nc3cc(OC)ccc23)CN1C(=O)[C@@H](OC(=O)Nc1ccc(OC)cc1)C(C)(C)C)C(=O)NS(=O)(=O)C1CC1` [Example 5,Compound 5], for which, in test [1], the 50% inhibitory concentration (IC50) fell in the range of 100 to 1000 nM. The EC50 in test [2] (setting [3]) lay within 500 to 5000 nM.
In the same order, the values of `C=C[C@@H]1C[C@]1(NC(=O)[C@@H]1C[C@@H](Oc2nccc3ccccc23)CN1C(=O)[C@@H](OC(=O)Nc1ccccc1OC)C(C)(C)C)C(=O)NS(=O)(=O)C1CC1` [Example 29] are 100 to 1000 nM and 500 to 5000 nM.
With `C=C[C@@H]1C[C@]1(NC(=O)[C@@H]1C[C@@H](Oc2nccc3ccccc23)CN1C(=O)[C@@H](OC(=O)Nc1ccc(C(C)(C)C)cc1)C(C)(C)C)C(=O)NS(=O)(=O)C1CC1` [Example 33], the half-maximal inhibitory concentration (IC50) in test [1] lay in the range of 100 to 1000 nM. The EC50 in test [2] (setting [3]) is 500 to 5000 nM.
As for `C=C[C@@H]1C[C@]1(NC(=O)[C@@H]1C[C@@H](Oc2cc(-c3ccccc3)nc3cc(OC)ccc23)CN1C(=O)C1CC1)C(=O)NS(=O)(=O)C1CC1` [Example 19], the IC50 in test [1] was 100 to 1000 nM.
In the case of `C=C[C@@H]1CC1(NC(=O)[C@@H]1C[C@@H](Oc2cc(-c3ccccc3)nc3cc(OC)ccc23)CN1C(=O)[C@@H](OC(=O)NC(C)(C)C)C(C)(C)C)C(=O)NS(=O)(=O)C1(CC2CC2)CC1` (some centres unmarked) [Example 22], the IC50 in test [1] was less than 100 nM. Also, the EC50 in test [2] (setting [3]) lay in the range of 500 to 5000 nM.
Consider `C=C[C@@H]1C[C@]1(NC(=O)[C@@H]1C[C@@H](Oc2nccc3cc(OC)ccc23)CN1C(=O)[C@@H](O)C(C)C)C(=O)NS(=O)(=O)C1CC1` [Example 50Compound 50], for which the IC50 in test [1] was 100 to 1000 nM. Moreover, the EC50 in test [2] (read-out: EC50 Range, HCV replicon cell assay) fell in the range of 500 to 5000 nM.
With `C=C[C@@H]1C[C@]1(NC(=O)[C@@H]1C[C@@H](Oc2nccc3cc(OC)ccc23)CN1C(=O)[C@@H](OC(=O)NC(C)(C)C)C(C)(C)C)C(=O)NS(=O)(=O)c1ccccc1` [Example 59Compound 59], the IC50 in test [1] fell in the range of 100 to 1000 nM. The EC50 in test [2] (setting [3]) lay in the range of 500 to 5000 nM.
In the same order, the values of `C=C[C@@H]1C[C@]1(NC(=O)[C@@H]1C[C@@H](Oc2cc(-c3ccccc3)nc3cc(OC)ccc23)CN1C(=O)[C@@H](OC(=O)NC(C)(C)C)C(C)(C)C)C(=O)NS(=O)(=O)C1CC1` [Example 5,Compound 1] are less than 100 nM and less than 500 nM.
In the same order, the values of `C=C[C@@H]1C[C@]1(NC(=O)[C@@H]1C[C@@H](Oc2nccc3ccccc23)CN1C(=O)[C@@H](OC(=O)Nc1ccc(F)cc1)C(C)(C)C)C(=O)NS(=O)(=O)C1CC1` [Example 30] are 100 to 1000 nM and 500 to 5000 nM.
Taken in the same sequence, the figures for `CCC1C[C@]1(NC(=O)[C@@H]1C[C@@H](Oc2cc(-c3ccccc3)nc3cc(OC)ccc23)CN1C(=O)[C@@H](O)C1CCCCC1)C(=O)NS(=O)(=O)C1CC1` (some centres unmarked) [Example 13] were less than 100 nM and 500 to 5000 nM.
In the case of `C=C[C@@H]1C[C@]1(NC(=O)[C@@H]1C[C@@H](Oc2nccc3ccccc23)CN1C(=O)[C@@H](OC(=O)NC1CCCCC1)C(C)(C)C)C(=O)NS(=O)(=O)C1CC1` [Example 27], the half-maximal inhibitory concentration (IC50) in test [1] was less than 100 nM. For the same molecule, the EC50 in test [2] (setting [3]) lay within 500 to 5000 nM.
For the molecule `C=C[C@@H]1C[C@]1(NC(=O)[C@@H]1C[C@@H](Oc2nccc3ccccc23)CN1C(=O)[C@@H](OC(=O)NC1CCCC1)C(C)(C)C)C(=O)NS(=O)(=O)C1CC1` [Example 9], the half-maximal inhibitory concentration (IC50) in test [1] lay in the range of 100 to 1000 nM. In test [2] (setting [3]), the EC50 lay within 500 to 5000 nM.
`C=C[C@@H]1C[C@]1(NC(=O)[C@@H]1C[C@@H](Oc2nccc3ccccc23)CN1C(=O)[C@@H](OC(=O)NCC)C(C)(C)C)C(=O)NS(=O)(=O)C1CC1` [Example 25]: the IC50 in test [1] lay within 100 to 1000 nM. Further, the half-maximal effective concentration (EC50) in test [2] (setting [3]) lay in the range of 500 to 5000 nM.
Taken in the same sequence, the figures for `C=C[C@@H]1C[C@]1(NC(=O)[C@@H]1C[C@@H](Oc2nccc3cc(OC)ccc23)CN1C(=O)[C@@H](OC(=O)NC(C)(C)C)C(C)(C)C)C(=O)NS(=O)(=O)c1cn(C)cn1` [Example 60Compound 60] were greater than 1000 nM and greater than 5000 nM.
Taken in the same sequence, the figures for `C=C[C@@H]1C[C@]1(NC(=O)[C@@H]1C[C@@H](Oc2cc(-c3ccccc3)nc3cc(OC)ccc23)CN1C(=O)C(O)CC(C)C)C(=O)NS(=O)(=O)C1CC1` (some centres unmarked) [Example 4,Compound 2] were 100 to 1000 nM and 500 to 5000 nM.
Taken in the same sequence, the figures for `C=C[C@@H]1C[C@]1(NC(=O)[C@@H]1C[C@@H](Oc2cc(-c3ccccc3)nc3cc(OC)ccc23)CN1C(=O)[C@@H](O)C1CCCCC1)C(=O)NS(=O)(=O)C1CC1` [Example 4,Compound 4] were less than 100 nM and 500 to 5000 nM.
In the case of `C=CCCCCCC(O)C(=O)N1C[C@H](Oc2nc(-c3ccccc3)cc3cc(OC)ccc23)CC1C(=O)N[C@]1(C(=O)NS(=O)(=O)C2CC2)CC1C=C` (some centres unmarked) [Example 21], in test [1], the IC50 was 100 to 1000 nM.
